Results: patent publication US20250179059A1 (The Regents of the University of California, priority 2021, published 2025)

Key:
[1] = tested on: human SKM-1 acute myeloid leukemia cells; assay: SKM-1 antiproliferation cell-based assay (ATPlite)
In short: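 Log-phase cells in RPMI 1640/15% FBS were seeded at 34722 cells/mL and exposed for 4 days to nine-concentration DMSO serial dilutions in triplicate. Viability was read as ATP luminescence (ATPlite 1step), and IC50 values came from variable-slope non-linear regression.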

[2] = biological target: T1, human BRD4 bromodomain II (Homo sapiens, UniProt O60885); assay: Bromodomain binding assay (AlphaScreen), BRD4 BDII; conditions: BRD4 BDII AlphaScreen assay; read-out: BRD4 BD2 IC50
T1 construct: human BRD4 bromodomain II [based on Genbank NM_058243, residues 349-460]; host or cells: E. coli
In short: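 Inhibition of acetyl-H4 peptide binding to human BRD4 bromodomains is measured by bead-based proximity (AlphaScreen) in pH 7.5 HEPES buffer containing 0.05% CHAPS and 0.1% BSA. Ten compound concentrations in 3-fold steps give competitive binding IC50s.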

[3] = Homo sapiens, SKM-1, SKM-1 antiproliferation assay

Row | GI50 [1, 3] | IC50 [2] | GI50 ([1]; SKM-1 antiproliferation assay) | Compound
1 | 0.3 to 30 nM | 0.01 to 1 nM | – | Cc1ncc(-c2cc(F)cc(-c3ccc(-n4ccn(C)c4=O)c(Cl)c3)c2O)cc1N1CCC2(CCCN2C(C)C)C1 (stereo not drawn) [Example 911, 1-(3-chloro-5′-fluoro-2′-hydroxy-3′-(5-(1-isopropyl-1,7-diazaspiro[4.4]nonan-7-yl)-6-methylpyridin-3-yl)-[1,1′-biphenyl]-4-yl)-3-methyl-1H-imidazol-2(3H)-one]
2 | 300 to 3000 nM | > 100 nM | – | CC(=O)Nc1ccc(-c2cc(F)cc(-c3cccc(N4CCN(C(C)(C)C)CC4)c3)c2O)nc1 [Example 912, N-(6-(3′-(4-(tert-butyl)piperazin-1-yl)-5-fluoro-2-hydroxy-[1,1′-biphenyl]-3-yl)pyridin-3-yl)acetamide]
3 | 0.3 to 30 nM | 0.01 to 1 nM | – | COc1ncc(-c2cc(F)cc(-c3ccc(-n4ccn(C)c4=O)c(Cl)c3)c2O)cc1N1CCC2(CCCN2C(C)C)C1 (stereo not drawn) [Example 913, 1-(3-chloro-5′-fluoro-2′-hydroxy-3′-(5-(1-isopropyl-1,7-diazaspiro[4.4]nonan-7-yl)-6-methoxypyridin-3-yl)-[1,1′-biphenyl]-4-yl)-3-methyl-1H-imidazol-2(3H)-one]
4 | 0.3 to 30 nM | 1 to 10 nM | – | Cn1ccn(-c2ccc(-c3cc(F)cc(-c4cnc(N)c(N5CCN(C(C)(C)C)CC5)c4)c3O)cc2Cl)c1=O [Example 914, 1-(3′-(6-amino-5-(4-(tert-butyl)piperazin-1-yl)pyridin-3-yl)-3-chloro-5′-fluoro-2′-hydroxy-[1,1′-biphenyl]-4-yl)-3-methyl-1H-imidazol-2(3H)-one]
5 | 30 to 300 nM | 0.01 to 1 nM | – | Cn1ccn(-c2ccc(-c3cc(F)cc(-c4ccnc(N5CCS(=N)(=O)CC5)c4)c3O)cc2Cl)c1=O [Example 915, 1-(3-chloro-5′-fluoro-2′-hydroxy-3′-(2-(1-imino-1-oxidothiomorpholino)pyridin-4-yl)-[1,1′-biphenyl]-4-yl)-3-methyl-1H-imidazol-2(3H)-one]
6 | 0.3 to 30 nM | 0.01 to 1 nM | – | Cc1cc(-c2ccc(-n3ccn(C)c3=O)c(Cl)c2)c(O)c(-c2cccc(N3CCN(C(C)(C)C)CC3)c2)n1 [Example 916, 1-(4-(2-(3-(4-(tert-Butyl)piperazin-1-yl)phenyl)-3-hydroxy-6-methylpyridin-4-yl)-2-chlorophenyl)-3-methyl-1H-imidazol-2(3H)-one]
7 | 30 to 300 nM | 1 to 10 nM | – | Cc1cc(-c2cccc(N3CCN(C(C)(C)C)CC3)c2)c(O)c(-c2ccc(-n3ccn(C)c3=O)c(Cl)c2)n1 [Example 917, 1-(4-(4-(3-(4-(tert-Butyl)piperazin-1-yl)phenyl)-3-hydroxy-6-methylpyridin-2-yl)-2-chlorophenyl)-3-methyl-1H-imidazol-2(3H)-one]
8 | 0.3 to 30 nM | 1 to 10 nM | – | CN1CCN(c2ccc(-c3cc(F)cc(-c4cccc(N5CCN(C(C)(C)C)CC5)c4)c3O)cc2Cl)C1=O [Example 918, 1-(3″-(4-(tert-butyl)piperazin-1-yl)-3-chloro-5′-fluoro-2′-hydroxy-[1,1′:3′,1″-terphenyl]-4-yl)-3-methylimidazolidin-2-one]
9 | 300 to 3000 nM | 1 to 10 nM | – | CC(=O)Nc1ccc(-c2cc(F)cc(-c3cccc(N4CCN(C(C)(C)C)CC4)c3)c2O)cc1Cl [Example 919, N-(3″-(4-(tert-butyl)piperazin-1-yl)-3-chloro-5′-fluoro-2′-hydroxy-[1,1′:3′,1″-terphenyl]-4-yl)acetamide]
10 | 30 to 300 nM | > 100 nM | – | Cc1nc(-c2cccc(N3CCN(C(C)(C)C)CC3)c2)c(O)c(-c2ccc(-n3ccn(C)c3=O)c(Cl)c2)n1 [Example 920, 1-(4-{6-[3-(4-tert-Butyl-piperazin-1-yl)-phenyl]-5-hydroxy-2-methyl-pyrimidin-4-yl}-2-chloro-phenyl)-3-methyl-1,3-dihydro-imidazol-2-one]
11 | 300 to 3000 nM | 10 to 100 nM | – | CNC(=O)Nc1ccc(-c2cc(F)cc(-c3cccc(N4CCN(C(C)(C)C)CC4)c3)c2O)cc1Cl [Example 921, 1-(3″-(4-(tert-Butyl)piperazin-1-yl)-3-chloro-5′-fluoro-2′-hydroxy-[1,1′:3′,1″-terphenyl]-4-yl)-3-methylurea]
12 | 0.3 to 30 nM | 0.01 to 1 nM | – | CN(C)c1ncc(-c2cc(F)cc(-c3ccc(-n4ccn(C)c4=O)c(Cl)c3)c2O)cc1N1CCN(C(C)(C)C)CC1 [Example 922, 1-(3′-(5-(4-(tert-Butyl)piperazin-1-yl)-6-(dimethylamino)pyridin-3-yl)-3-chloro-5′-fluoro-2′-hydroxy-[1,1′-biphenyl]-4-yl)-3-methyl-1H-imidazol-2(3H)-one]
13 | 0.3 to 30 nM | 0.01 to 1 nM | – | CNc1ncc(-c2cc(F)cc(-c3ccc(-n4ccn(C)c4=O)c(Cl)c3)c2O)cc1N1CCN(C(C)(C)C)CC1 [Example 923, 1-(3′-(5-(4-(tert-Butyl)piperazin-1-yl)-6-(methylamino)pyridin-3-yl)-3-chloro-5′-fluoro-2′-hydroxy-[1,1′-biphenyl]-4-yl)-3-methyl-1H-imidazol-2(3H)-one]
14 | 30 to 300 nM | 10 to 100 nM | – | CCOc1cc(-c2cc(F)cc(-c3cccc(N4CCN(C(C)(C)C)CC4)c3)c2O)cc(Cl)c1-n1ccn(C)c1=O [Example 925, 1-(3″-(4-(tert-Butyl)piperazin-1-yl)-3-chloro-5-ethoxy-5′-fluoro-2′-hydroxy-[1,1′:3′,1″-terphenyl]-4-yl)-3-methyl-1H-imidazol-2(3H)-one]
15 | 0.3 to 30 nM | 0.01 to 1 nM | – | [2H]C([2H])([2H])Oc1ncc(-c2cc(F)cc(-c3ccc(-n4ccn(C)c4=O)c(Cl)c3)c2O)cc1N1CCN(C(C)(C)C)CC1 [Example 926, 1-(3′-(5-(4-(tert-Butyl)piperazin-1-yl)-6-(methoxy-d3)pyridin-3-yl)-3-chloro-5′-fluoro-2′-hydroxy-[1,1′-biphenyl]-4-yl)-3-methyl-1,3-dihydro-2H-imidazol-2-one]
16 | 30 to 300 nM | 10 to 100 nM | – | Cc1cc(-c2cc(F)cc(-c3cccc(N4CCN(C(C)(C)C)CC4)c3)c2O)cc(Cl)c1-n1ccn(C)c1=O [Example 927, 1-(3″-(4-(tert-butyl)piperazin-1-yl)-3-chloro-5′-fluoro-2′-hydroxy-5-methyl-[1,1′:3′,1″-terphenyl]-4-yl)-3-methyl-1H-imidazol-2(3H)-one]
17 | 30 to 300 nM | 1 to 10 nM | – | CC(C)(C)N1CCN(c2cccc(-c3cc(F)cc(-c4ccc(-n5cc[nH]c5=O)c(Cl)c4)c3O)c2)CC1 [Example 928, 1-(3″-(4-(tert-butyl)piperazin-1-yl)-3-chloro-5′-fluoro-2′-hydroxy-[1,1′:3′,1″-terphenyl]-4-yl)-1H-imidazol-2(3H)-one]
18 | 300 to 3000 nM | > 100 nM | – | CCc1cc(-c2cc(F)cc(-c3cccc(N4CCN(C(C)(C)C)CC4)c3)c2O)cc(Cl)c1-n1ccn(C)c1=O [Example 929, 1-(3″-(4-(tert-butyl)piperazin-1-yl)-3-chloro-5-ethyl-5′-fluoro-2′-hydroxy-[1,1′:3′,1″-terphenyl]-4-yl)-3-methyl-1H-imidazol-2(3H)-one]
19 | 300 to 3000 nM | > 100 nM | – | Cn1ccn(-c2c(Cl)cc(-c3cc(F)cc(-c4cccc(N5CCN(C(C)(C)C)CC5)c4)c3O)cc2OC2CC2)c1=O [Example 930, 1-(3″-(4-(tert-butyl)piperazin-1-yl)-3-chloro-5-cyclopropoxy-5′-fluoro-2′-hydroxy-[1,1′:3′,1″-terphenyl]-4-yl)-3-methyl-1H-imidazol-2(3H)-one]
20 | 300 to 3000 nM | > 100 nM | – | Cn1ccn(-c2c(OC3CC3)ccc(-c3cc(F)cc(-c4cccc(N5CCN(C(C)(C)C)CC5)c4)c3O)c2Cl)c1=O [Example 931, 1-(3″-(4-(tert-butyl)piperazin-1-yl)-2-chloro-4-cyclopropoxy-5′-fluoro-2′-hydroxy-[1,1′:3′,1″-terphenyl]-3-yl)-3-methyl-1,3-dihydro-2H-imidazol-2-one]
21 | 300 to 3000 nM | > 100 nM | – | CC(C)c1cc(-c2cc(F)cc(-c3cccc(N4CCN(C(C)(C)C)CC4)c3)c2O)cc(Cl)c1-n1ccn(C)c1=O [Example 932, 1-(3″-(4-(tert-butyl)piperazin-1-yl)-3-chloro-5′-fluoro-2′-hydroxy-5-isopropyl-[1,1′:3′,1″-terphenyl]-4-yl)-3-methyl-1H-imidazol-2(3H)-one]
22 | 30 to 300 nM | 10 to 100 nM | – | Cn1ccn(-c2c(Cl)cc(-c3cc(F)cc(-c4cccc(N5CCN(C(C)(C)C)CC5)c4)c3O)cc2C2CC2)c1=O [Example 933, 1-(3″-(4-(tert-butyl)piperazin-1-yl)-3-chloro-5-cyclopropyl-5′-fluoro-2′-hydroxy-[1,1′:3′,1″-terphenyl]-4-yl)-3-methyl-1H-imidazol-2(3H)-one]
23 | – | > 100 nM | 300 to 3000 nM | CC(C)c1cc(-c2cc(F)cc(-c3cccc(N4CCN(C(C)(C)C)CC4)c3)c2O)cc(Cl)c1-n1ccn(C)c1=O [Example 934, (R)-1-(3″-(4-(tert-butyl)piperazin-1-yl)-3-chloro-5′-fluoro-2′-hydroxy-5-isopropyl-[1,1′:3′,1″-terphenyl]-4-yl)-3-methyl-1,3-dihydro-2H-imidazol-2-one]

Row | Compound | GI50 [1, 3] | IC50 [2] | GI50 ([1]; SKM-1 antiproliferation assay)
24 | CC(C)COc1cc(-c2cc(F)cc(-c3cccc(N4CCN(C(C)(C)C)CC4)c3)c2O)cc(Cl)c1-n1ccn(C)c1=O [Example 924, 1-(3″-(4-(tert-Butyl)piperazin-1-yl)-3-chloro-5′-fluoro-2′-hydroxy-5-isobutoxy-[1,1′:3′,1″-terphenyl]-4-yl)-3-methyl-1H-imidazol-2(3H)-one] | 30 to 300 nM | 10 to 100 nM | –
